Data as given in the supplement of paper PMC10307832.

How the values were obtained:
Assay in all cases: relative viability (nuclei count vs DMSO), 5 days (fraction); higher = more cells survive
[1] = compound: NC(=O)c1ccc(N(C(N)=O)c2c(F)cccc2F)nc1-c1ccc(F)cc1F [VX-702] + CC(=O)Nc1cccc(-n2c(=O)n(C3CC3)c(=O)c3c(Nc4ccc(I)cc4F)n(C)c(=O)c(C)c32)c1 [Trametinib] (partner 0.02 µM)
How it was run: (§1)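 One day after seeding in 1536-well plates, lung cancer cell lines were dosed by pin tool. Dosing was either single-drug or a fixed anchor-drug dose plus five library-drug doses (not always all listed) in √10 steps. After 5 days, nuclei were stained in one fix-and-stain step and counted on 4× images, and relative viability is the nuclei count of treated wells over that of vehicle wells, given as the median of duplicate plates.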

[2] = compound: CC(C)(C)c1nc(-c2cccc(NS(=O)(=O)c3c(F)cccc3F)c2F)c(-c2ccnc(N)n2)s1 [Dabrafenib] + Nc1ncn([C@H]2C[C@H](O)[C@@H](CO)O2)c(=O)n1 [Decitabine] (partner 2 µM)
How it was run: as §1

[3] = compound: CC(C)(C)c1nc(-c2cccc(NS(=O)(=O)c3c(F)cccc3F)c2F)c(-c2ccnc(N)n2)s1 [Dabrafenib] + CS(=O)(=O)N1CCN(Cc2cc3nc(-c4cccc5[nH]ncc45)nc(N4CCOCC4)c3s2)CC1 [Pictilisib] (partner 1 µM)
How it was run: as §1

[4] = compound: NC(=O)c1ccc(N(C(N)=O)c2c(F)cccc2F)nc1-c1ccc(F)cc1F [VX-702] + NC(=O)Nc1cc(-c2cccc(F)c2)sc1C(=O)N[C@H]1CCCNC1 [AZD7762] (partner 0.2 µM)
How it was run: as §1

| Cell Line | relative viability ([1]; first compound 0.02 µM) | relative viability ([1]; first compound 0.2 µM) | relative viability ([1]; first compound 0.6325 µM) | relative viability ([1]; first compound 2 µM) | relative viability ([2]; first compound 0.003 µM) | relative viability ([2]; first compound 0.009487 µM) | relative viability ([2]; first compound 0.03 µM) | relative viability ([2]; first compound 0.09487 µM) | relative viability ([2]; first compound 0.3 µM) | relative viability ([3]; first compound 0.003 µM) | relative viability ([3]; first compound 0.009487 µM) | relative viability ([3]; first compound 0.09487 µM) | relative viability ([3]; first compound 0.3 µM) | relative viability ([3]; first compound 0.03 µM) | relative viability ([4]; first compound 0.02 µM) | relative viability ([4]; first compound 0.2 µM) | relative viability ([4]; first compound 0.6325 µM) | relative viability ([4]; first compound 2 µM) |
| --- | --- | --- | --- | --- | --- | --- | --- | --- | --- | --- | --- | --- | --- | --- | --- | --- | --- | --- |
| NCI-H661 | 0.682 | 0.599 | 0.637 | 0.71 | 0.656 | 0.57 | 0.575 | 0.573 | 0.514 | 0.283 | 0.376 | 0.34 | 0.48 | – | – | – | – | – |
| NCI-H1299 | – | – | – | – | – | – | – | – | – | 0.74 | 0.756 | 0.464 | 0.441 | 0.797 | – | – | – | – |
| NCI-H1563 | – | – | – | – | – | – | – | – | – | 0.591 | 0.628 | 0.633 | 0.583 | 0.6 | – | – | – | – |
| NCI-H1648 | 0.395 | 0.579 | 0.593 | 0.435 | 0.599 | 0.463 | – | 0.372 | 0.495 | – | – | – | – | – | 0.709 | 0.583 | 0.634 | 0.563 |
| NCI-H1650 | 0.599 | 0.725 | 0.656 | 0.501 | 0.415 | 0.389 | 0.395 | 0.387 | 0.329 | 0.401 | 0.841 | 0.647 | 0.814 | 0.404 | – | – | – | – |
| NCI-H1703 | – | – | – | – | – | – | – | – | – | 0.257 | 0.255 | 0.249 | 0.226 | 0.225 | 0.123 | 0.117 | – | 0.115 |
| NCI-H2009 | 0.284 | 0.28 | 0.255 | 0.272 | 0.359 | 0.38 | 0.397 | 0.339 | 0.358 | 0.292 | 0.797 | 0.334 | 0.346 | 0.475 | – | – | – | – |
| NCI-H2023 | 0.497 | 0.458 | 0.458 | 0.558 | 0.236 | 0.222 | 0.196 | 0.214 | 0.135 | 0.171 | 0.271 | 0.283 | 0.267 | 0.207 | – | – | – | – |
| NCI-H2228 | 0.485 | 0.518 | 0.551 | 0.602 | – | – | – | – | – | 0.331 | 0.386 | 0.316 | 0.483 | 0.415 | – | – | – | – |
| NCI-H2342 | 0.686 | 1.01 | 0.871 | 0.835 | 0.748 | 0.723 | 0.657 | 0.781 | 0.774 | – | – | – | – | – | 0.607 | 0.644 | 0.6 | 0.552 |
| SK-LU-1 | 0.497 | 0.472 | 0.486 | 0.651 | – | 0.657 | 0.569 | 0.571 | 0.484 | – | 0.668 | 0.416 | 0.397 | 0.385 | – | – | – | – |
| SK-MES-1 | 0.546 | 0.52 | 0.481 | 0.523 | 0.362 | 0.441 | 0.405 | 0.382 | 0.338 | 0.363 | 0.416 | 0.376 | 0.377 | 0.269 | – | – | – | – |
| SW 1573 | 0.569 | 0.467 | 0.473 | 0.649 | 0.448 | 0.545 | 0.488 | 0.589 | 0.357 | 0.501 | 0.474 | 0.426 | 0.505 | 0.454 | – | – | – | – |
| UMC-11 | 0.682 | 0.544 | 0.562 | 0.846 | 0.707 | 0.603 | 0.558 | 0.383 | 0.434 | 0.749 | 0.819 | 0.832 | 0.888 | 0.621 | – | – | – | – |
